Measured values as given in the Kinase Knowledgebase extract (Sharma et al. 2016).

Columns and labels:
EGFR = EGFR (UniProt P00533); details: for inhibition: concentration not given here
EGFR (Hamster) = EGFR (Hamster) (UniProt P00533); details: for IC50: er22; for inhibition: er22, dose or concentration not given here
Chain of EGFR (Hamster) (P00533 whole entry, looked up): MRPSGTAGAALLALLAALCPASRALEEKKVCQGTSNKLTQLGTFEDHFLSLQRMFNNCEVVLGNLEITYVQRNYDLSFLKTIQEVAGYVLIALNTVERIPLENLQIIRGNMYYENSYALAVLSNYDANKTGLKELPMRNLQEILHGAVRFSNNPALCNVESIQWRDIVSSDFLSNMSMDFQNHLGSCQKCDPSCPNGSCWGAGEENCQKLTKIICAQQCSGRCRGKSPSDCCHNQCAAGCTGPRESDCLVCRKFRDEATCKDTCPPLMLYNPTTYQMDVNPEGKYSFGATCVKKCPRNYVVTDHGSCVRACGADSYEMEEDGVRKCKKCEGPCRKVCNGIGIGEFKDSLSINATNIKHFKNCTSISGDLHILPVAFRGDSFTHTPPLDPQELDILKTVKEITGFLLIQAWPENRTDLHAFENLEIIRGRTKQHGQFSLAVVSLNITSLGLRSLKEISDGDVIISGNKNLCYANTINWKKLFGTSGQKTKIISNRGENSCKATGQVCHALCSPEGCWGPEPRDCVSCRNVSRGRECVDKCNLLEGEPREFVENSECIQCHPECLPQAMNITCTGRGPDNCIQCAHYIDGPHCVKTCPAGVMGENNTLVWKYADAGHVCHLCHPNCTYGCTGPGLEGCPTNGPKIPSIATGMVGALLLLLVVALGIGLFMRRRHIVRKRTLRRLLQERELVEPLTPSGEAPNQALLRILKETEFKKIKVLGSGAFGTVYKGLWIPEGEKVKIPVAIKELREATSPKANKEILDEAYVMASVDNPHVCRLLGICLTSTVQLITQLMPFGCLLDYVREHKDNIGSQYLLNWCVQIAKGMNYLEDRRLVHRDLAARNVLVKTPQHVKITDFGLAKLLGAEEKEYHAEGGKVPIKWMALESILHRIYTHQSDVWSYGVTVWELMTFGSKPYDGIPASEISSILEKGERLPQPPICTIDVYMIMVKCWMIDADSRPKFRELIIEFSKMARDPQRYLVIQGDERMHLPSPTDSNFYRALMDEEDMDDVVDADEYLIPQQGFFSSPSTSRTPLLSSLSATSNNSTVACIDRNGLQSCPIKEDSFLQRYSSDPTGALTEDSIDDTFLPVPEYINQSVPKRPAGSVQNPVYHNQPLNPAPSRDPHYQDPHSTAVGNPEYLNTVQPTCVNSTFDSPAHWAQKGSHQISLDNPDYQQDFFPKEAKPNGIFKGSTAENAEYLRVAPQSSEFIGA

Chain of EGFR (P00533 whole entry, looked up): as above

| SMILES | inhibition (EGFR) [%] | IC50 (EGFR (Hamster)) [µM] | inhibition (EGFR (Hamster)) [%] | other results |
| --- | --- | --- | --- | --- |
| CCCCCCCCCCCCCCCCOC(=O)c1cc(NCc2cc(O)ccc2O)ccc1O | 0 |  | 0 |  |
| O=C(Oc1cccc(O)c1)c1cc(NCc2cc(O)ccc2O)ccc1O |  | > 5 | 0 |  |
| O=C(OCCC1[C@H]2C[C@@H]3C[C@@H](C[C@H]1C3)C2)c1cc(NCc2cc(O)ccc2O)ccc1O (some centres not stated) | 0 | 1.25 |  | IC50 (EGFR): > 5 µM |
| O=C(Oc1ccc2ccccc2c1)c1cc(NCc2cc(O)ccc2O)ccc1O |  |  |  | IC100 (EGFR): 0.09 µM |
| O=C(Cc1cc(N=Cc2cc(O)ccc2O)ccc1O)NOCc1ccccc1 |  |  | 61 |  |

Further lines, with some results ahead:

| inhibition (EGFR) [%] | IC50 (EGFR (Hamster)) [µM] | SMILES | inhibition (EGFR (Hamster)) [%] | other results |
| --- | --- | --- | --- | --- |
| 0 |  | CC(COC(=O)c1cc(N=Cc2cc(O)ccc2O)ccc1O)CC(C)(C)C (configuration not stated) |  |  |
|  | > 20 | CC(C)(C)ONC(=O)c1cc(N=Cc2cc(O)ccc2O)ccc1O | 0 |  |
|  | > 2 | CC(C)(C)CCOC(=O)c1cc(N=Cc2cc(O)ccc2O)ccc1O | 0 |  |
|  | > 100 | CONC(=O)c1cc(N=Cc2cc(O)ccc2O)ccc1O |  |  |
|  | > 10 | CC(C)(C)OC(=O)c1cc(N=Cc2cc(O)ccc2O)ccc1O |  |  |
| 0 |  | CC(CCOC(=O)c1cc(NCc2cc(O)ccc2O)ccc1O)CC(C)(C)C (configuration not stated) |  |  |
